Experimental data as given in EP3436445B1, “HISTONE DEMETHYLASE INHIBITORS” (Celgene Quanticel Research, Inc., priority 2016, dated 2017).

Key:
JMJD3 = target: T1, JMJD3 (Homo sapiens, UniProt O15054); assay: JMJD3 in vitro enzyme inhibition assay (AlphaScreen); assay type: biochemical; conditions: Table 5; 1 nM JMJD3, H3K27me3-biotin labeled peptide
T1 construct: purchased BPS Bioscience 50115
Description: This assay determines the ability of a test compound to inhibit Jarid1B, JMJD2C and JMJD3 demethylase activity. Baculovirus expressed Jarid1B (GenBank Accession #NM-006618, AA 2-751) was purchased from BPS Bioscience (Cat #50121) or custom made by MolecularThroughput. Baculovirus expressed JMJD2C (GenBank Accession #BC143571, AA 2-372) was purchased from BPS Bioscience (Cat#50105). Baculovirus expressed JMJD3 (GenBank Accession #NM-001080424, AA1043-end) was purchased from BPS Bioscience (Cat#50115).
The ability of test compounds to inhibit the activity of JMJD3 was determined in 384-well plate format under the following reaction conditions: 1 nM JMJD3, 250 nM H3K27me3-biotin labeled peptide (Anaspec cat # 64367), 1 µM alpha-ketoglutaric acid in assay buffer of 50 mM HEPES, pH7.3, 0.005% Brij35, 0.5 mM TCEP, 0.2 mg/ml BSA, 50 µM sodium L-ascorbate, 5 µM ammonium iron(II) sulfate. Reaction product is determined quantitatively by AlphaScreen detection after the addition of detection reagents anti-H3K27me1 antibody, 5 µg/ml AlphaScreen® Streptavidin-coated Donor beads, and 5 µg/ml AlphaScreen® Protein A Acceptor beads in 50 mM HEPES, pH7.3, 10 mM NaCl, 0.005% Brij35, 10 mM EDTA, 2 mg/ml BSA.
The assay reaction was initiated by the following: 3 µl of the mixture of 750 nM H3K27me3-biotin labeled peptide and 3 µM alpha-ketoglutaric acid with 3 µl of 11-point serial diluted inhibitor in 3% DMSO are added to each well of 384 well Proxiplate (Perkin Elmer), followed by the addition of 3 µl of 3 nM JMJD3 to initiate the reaction. The reaction mixture is incubated at room temperature for 20 minutes, and terminated by the addition of 3 µl of appropriate dilution of anti H3K27me1 antibody in 50 mM HEPES, pH7.3, 10 mM NaCl, 0.005% Brij35, 10 mM EDTA, 2 mg/ml BSA. Plates will then incubated at room temperature for 1 hour, followed by addition of 3 µl of 25 µg/ml AlphaScreen® Streptavidin-coated Donor beads and AlphaScreen® Protein A Acceptor beads in 50 mM HEPES, pH7.3, 10 mM NaCl, 0.005% Brij35, 10 mM EDTA, 2 mg/ml BSA. Plates will then be read by EnVision Multilabel Reader in AlphaScreen mode after minimum 2 hour incubation at room temperature. The AlphaScreen signal for each well is used to determine inhibition constant (IC50).

FBXL10 = target: T2, FBXL10 (Homo sapiens, UniProt Q8NHM5); assay: FBXL10 in vitro enzyme inhibition assay (AlphaScreen); assay type: biochemical; conditions: Table 5
T2 construct: purchased BPS Bioscience 50120
T2 sequence (Q8NHM5 1-650): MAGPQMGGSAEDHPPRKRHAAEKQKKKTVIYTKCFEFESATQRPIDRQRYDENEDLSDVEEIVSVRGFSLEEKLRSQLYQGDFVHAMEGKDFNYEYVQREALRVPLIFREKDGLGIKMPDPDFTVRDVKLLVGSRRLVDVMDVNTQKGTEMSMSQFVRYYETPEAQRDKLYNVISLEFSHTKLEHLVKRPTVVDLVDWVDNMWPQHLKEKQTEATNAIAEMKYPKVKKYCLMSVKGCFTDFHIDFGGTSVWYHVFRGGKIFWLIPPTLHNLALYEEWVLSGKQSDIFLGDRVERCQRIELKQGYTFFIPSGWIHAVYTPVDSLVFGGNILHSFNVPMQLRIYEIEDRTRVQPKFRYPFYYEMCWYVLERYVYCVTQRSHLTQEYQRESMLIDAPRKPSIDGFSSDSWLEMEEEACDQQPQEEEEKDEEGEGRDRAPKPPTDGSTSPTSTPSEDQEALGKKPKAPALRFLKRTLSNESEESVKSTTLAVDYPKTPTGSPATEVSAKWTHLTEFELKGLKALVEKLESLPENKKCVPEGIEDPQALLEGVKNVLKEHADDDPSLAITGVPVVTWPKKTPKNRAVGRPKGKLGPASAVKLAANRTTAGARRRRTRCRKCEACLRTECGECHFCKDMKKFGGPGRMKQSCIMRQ
Description: This assay determines the ability of a test compound to inhibit FBXL11, FBXL10, and PHF8 demethylase activity. Baculovirus expressed FBXL11 (GenBank Accession #NM_012308, AA1-1162) was purchased from BPS Bioscience (Cat#50102). Baculovirus expressed FBXL10 (GenBank Accession #NM_032590, AA 1-650) was purchased from BPS Bioscience (Cat #50120). Baculovirus expressed PHF8 (GenBank Accession NP_055922.1) was purchased from Active Motif (Cat#31435).
The ability of test compounds to inhibit the activity of FBXL10 was determined in 384-well plate format under the following reaction conditions: 0.3 nM FBXL10, 30 nM H3K36me2-biotin labeled peptide (Anaspec cat # 64442), 0.2 µM alpha-ketoglutaric acid in assay buffer of 50 mM HEPES, pH7.3, 0.005% Brij35, 0.5 mM TCEP, 0.2 mg/ml BSA, 50 µM sodium L-ascorbate, 5 µM ammonium iron(II) sulfate. Reaction product is determined quantitatively by AlphaScreen detection after the addition of detection reagents anti-H3K36me1 antibody, AlphaScreen® Streptavidin-coated Donor beads, and AlphaScreen® Protein A Acceptor beads in 50 mM HEPES, pH7.3, 10 mM NaCl, 0.005% Brij35, 5 mM EDTA, 2 mg/ml BSA to final 10 µg/ml beads.
The assay reaction was initiated by the following: 3 µl of the mixture of 90 nM H3K36me2-biotin labeled peptide and 0.6 µM alpha-ketoglutaric acid with 3 µl of 11-point serial diluted inhibitor in 3% DMSO are added to each well of 384 well Proxiplate (Perkin Elmer), followed by the addition of 3 µl of 0.9 nM FBXL10 to initiate the reaction. The reaction mixture is incubated at room temperature for 1 hour, and terminated by the addition of 3 µl of appropriate dilution of anti H3K36me1 antibody in 50 mM HEPES, pH7.3, 10 mM NaCl, 0.005% Brij35, 5 mM EDTA, 2 mg/ml BSA. Plates will then incubated at room temperature for 40 minutes, followed by addition of 3 µl of 50 µg/ml AlphaScreen® Streptavidin-coated Donor beads and AlphaScreen® Protein A Acceptor beads in 50 mM HEPES, pH7.3, 10 mM NaCl, 0.005% Brij35, 5 mM EDTA, 2 mg/ml BSA. Plates will then be read by EnVision Multilabel Reader in AlphaScreen mode after minimum 2 hour incubation at room temperature. The AlphaScreen signal for each well is used to determine inhibition constant (IC50).

T1 sequence (O15054 1043-1682 isoform O15054-1): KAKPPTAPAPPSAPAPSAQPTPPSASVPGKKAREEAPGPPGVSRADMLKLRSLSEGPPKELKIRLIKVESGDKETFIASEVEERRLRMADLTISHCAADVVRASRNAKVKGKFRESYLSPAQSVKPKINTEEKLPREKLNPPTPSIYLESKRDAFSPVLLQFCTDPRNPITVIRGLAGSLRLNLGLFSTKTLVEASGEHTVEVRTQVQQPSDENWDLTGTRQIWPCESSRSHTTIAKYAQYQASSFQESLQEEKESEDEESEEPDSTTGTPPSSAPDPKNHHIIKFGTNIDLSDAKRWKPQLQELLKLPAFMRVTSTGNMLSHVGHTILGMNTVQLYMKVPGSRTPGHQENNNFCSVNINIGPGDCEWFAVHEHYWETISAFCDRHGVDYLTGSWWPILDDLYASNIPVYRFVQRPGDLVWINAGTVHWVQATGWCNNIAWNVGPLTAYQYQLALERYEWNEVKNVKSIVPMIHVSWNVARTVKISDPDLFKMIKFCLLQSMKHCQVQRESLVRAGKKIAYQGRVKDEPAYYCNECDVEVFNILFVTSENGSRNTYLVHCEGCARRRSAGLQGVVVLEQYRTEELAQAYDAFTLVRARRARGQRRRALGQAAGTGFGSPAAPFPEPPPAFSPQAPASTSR

| SMILES | IC50 (JMJD3) | IC50 (FBXL10) |
| --- | --- | --- |
| Cc1ccc2c(c1)CCCC2Cn1cnc(-c2cc(-c3nn[nH]c3C(F)(F)F)ccn2)c1 (stereo not shown) [Example 102, 2-{1-[(6-methyl-1,2,3,4-tetrahydronaphthalen-1-yl)methyl]-1H-imidazol-4-yl}-4-[5-(trifluoromethyl)-1H-1,2,3-triazol-4-yl]pyridine] | > 10 µM | 1 to 10 µM |
| FC(F)(F)c1[nH]nnc1-c1ccnc(-c2cn(CCc3ccccc3Cl)cn2)c1 [Example 57] | > 10 µM | ≤ 0.1 µM |
| O=C(c1ccccc1)N1CCC[C@@H](n2cnc(-c3cc(-c4nn[nH]c4C(F)(F)F)ccn3)c2)C1 [Example 89, 2-{1-[(3R)-1-benzoylpiperidin-3-yl]-1H-imidazol-4-yl}-4-[5-(trifluoromethyl)-1H-1,2,3-triazol-4-yl]pyridine] | > 10 µM | ≤ 0.1 µM |
| COc1ccc(Cn2cnc(-c3cc(-c4nn[nH]c4C(F)(F)F)ccn3)c2)cc1 [Example 67, 2-{1-[(4-methoxyphenyl)methyl]-1H-imidazol-4-yl}-4-[5-(trifluoromethyl)-1H-1,2,3-triazol-4-yl]pyridine] | > 10 µM | ≤ 0.1 µM |
| CC(C)(C)c1ccc(CCn2cnc(-c3cc(-c4nn[nH]c4C(F)(F)F)ccn3)c2)cc1 [Example 96, 2-{1-[2-(4-tert-butylphenyl)ethyl]-1H-imidazol-4-yl}-4-[5-(trifluoromethyl)-1H-1,2,3-triazol-4-yl]pyridine] | > 10 µM | 0.1 to 1 µM |
| FC(F)(F)c1ccc(CCn2cnc(-c3cc(-c4nn[nH]c4C(F)(F)F)ccn3)c2)cc1 [Example 94, 4-[5-(trifluoromethyl)-1H-1,2,3-triazol-4-yl]-2-(1-{2-[4-(trifluoromethyl)phenyl]ethyl}-1H-imidazol-4-yl)pyridine] | > 10 µM | 0.1 to 1 µM |
| CC(c1ccccc1)n1cnc(-c2cc(-c3nn[nH]c3C(F)(F)F)ccn2)c1 (stereo not shown) [Example 73, 2-[1-(1-phenylethyl)-1H-imidazol-4-yl]-4-[5-(trifluoromethyl)-1H-1,2,3-triazol-4-yl]pyridine] | > 10 µM | ≤ 0.1 µM |
| Fc1ccc2c(c1)CCCC2Cn1cnc(-c2cc(-c3nn[nH]c3C(F)(F)F)ccn2)c1 (stereo not shown) [Example 100, 2-{1-[(6-fluoro-1,2,3,4-tetrahydronaphthalen-1-yl)methyl]-1H-imidazol-4-yl}-4-[5-(trifluoromethyl)-1H-1,2,3-triazol-4-yl]pyridine] | > 10 µM | 0.1 to 1 µM |
| COc1ccc2c(c1)C(Cn1cnc(-c3cc(-c4nn[nH]c4C(F)(F)F)ccn3)c1)CCC2 (stereo not shown) [Example 106, 2-{1-[(7-methoxy-1,2,3,4-tetrahydronaphthalen-1-yl)methyl]-1H-imidazol-4-yl}-4-[5-(trifluoromethyl)-1H-1,2,3-triazol-4-yl]pyridine] | > 10 µM | 0.1 to 1 µM |
| O=C(c1ccccc1)N1CCC[C@H](n2cnc(-c3cc(-c4nn[nH]c4C(F)(F)F)ccn3)c2)C1 [Example 90, 2-{1-[(3S)-1-benzoylpiperidin-3-yl]-1H-imidazol-4-yl}-4-[5-(trifluoromethyl)-1H-1,2,3-triazol-4-yl]pyridine] | > 10 µM | ≤ 0.1 µM |

Other lines, results leading:

| IC50 (JMJD3) | IC50 (FBXL10) | SMILES |
| --- | --- | --- |
| > 10 µM | ≤ 0.1 µM | Cc1ccccc1Cn1cnc(-c2cc(-c3nn[nH]c3C(F)(F)F)ccn2)c1 [Example 66, 2-{1-[(2-methylphenyl)methyl]-1H-imidazol-4-yl}-4-[5-(trifluoromethyl)-1H-1,2,3-triazol-4-yl]pyridine] |
| > 10 µM | ≤ 0.1 µM | Fc1ccc(F)c(CCn2cnc(-c3cc(-c4nn[nH]c4C(F)(F)F)ccn3)c2)c1 [Example 88, 2-{1-[2-(2,5-difluorophenyl)ethyl]-1H-imidazol-4-yl}-4-[5-(trifluoromethyl)-1H-1,2,3-triazol-4-yl]pyridine] |
| > 10 µM | ≤ 0.1 µM | Fc1ccc(Cn2cnc(-c3cc(-c4nn[nH]c4C(F)(F)F)ccn3)c2)c(F)c1 [Example 68, 2-{1-[(2,4-difluorophenyl)methyl]-1H-imidazol-4-yl}-4-[5-(trifluoromethyl)-1H-1,2,3-triazol-4-yl]pyridine] |
| > 10 µM | 0.1 to 1 µM | Cc1ccc2c(c1)C(Cn1cnc(-c3cc(-c4nn[nH]c4C(F)(F)F)ccn3)c1)CCC2 (stereo not shown) [Example 103, 2-{1-[(7-methyl-1,2,3,4-tetrahydronaphthalen-1-yl)methyl]-1H-imidazol-4-yl}-4-[5-(trifluoromethyl)-1H-1,2,3-triazol-4-yl]pyridine] |
| > 10 µM | ≤ 0.1 µM | Cc1cc(F)ccc1Cn1cnc(-c2cc(-c3nn[nH]c3C(F)(F)F)ccn2)c1 [Example 70, 2-{1-[(4-fluoro-2-methylphenyl)methyl]-1H-imidazol-4-yl}-4-[5-(trifluoromethyl)-1H-1,2,3-triazol-4-yl]pyridine] |
| > 10 µM | ≤ 0.1 µM | Cc1ccc(Cn2cnc(-c3cc(-c4nn[nH]c4C(F)(F)F)ccn3)c2)c(F)c1 [Example 71, 2-{1-[(2-fluoro-4-methylphenyl)methyl]-1H-imidazol-4-yl}-4-[5-(trifluoromethyl)-1H-1,2,3-triazol-4-yl]pyridine] |
| > 10 µM | ≤ 0.1 µM | Cc1ccc(Cn2cnc(-c3cc(-c4nn[nH]c4C(F)(F)F)ccn3)c2)cc1 [Example 65, 2-{1-[(4-methylphenyl)methyl]-1H-imidazol-4-yl}-4-[5-(trifluoromethyl)-1H-1,2,3-triazol-4-yl]pyridine] |
